The source of these data is ChEMBL document CHEMBL1130895, “Syntheses of 2-[(3,5-dimethyl-4-methoxypyridyl)alkyl]-benzothiazolidine derivatives as a potential gastric H+/K(+)-ATPase inhibitor” (Bioorg Med Chem Lett, 1998).

Where only a bound is given, the exact number is not on record here.

As usually defined, the inhibition is the relative decrease from the control value, in per cent. As a reminder, the IC50 is the concentration that inhibits the measured activity by half. High values mean a need for much substance, low ones inhibition by little substance.

Assay [1] has as its target Potassium-transporting ATPase (Homo sapiens) (UniProt P20648+P51164). Nature of the assay: Inhibition of H+/K+ ATPase activity in buffered solution (pH 7.4) at concentration […]. It counts as protein-complex assay.
Assay [2] has as its target Potassium-transporting ATPase (Homo sapiens, UniProt P20648). Put plainly: Inhibition of H+/K+ ATPase activity in buffered solution (pH 7.4). Type of assay: protein-complex assay.

In assay [1], `COc1c(C)cnc(CCC2(C)Nc3ccc(Cl)cc3S2)c1C` (stereo not given) came in with an inhibition of 0%.
`COc1c(C)cnc(/C=C/C2(C)Nc3ccccc3S2)c1C` (stereo not given): the IC50 in assay [2] was greater than 100 µM. Further, the inhibition in assay [1] is 61.1%.
As for `CC1(CCc2ccccn2)Nc2ccccc2S1` (stereo not given), the inhibition in assay [1] amounted to 0%.
Still for that read-out and setting: next, `COc1c(C)cnc(CCC2Nc3ccccc3S2)c1C` (stereo not given): 24.6%.
On the same count and under the same terms, for `COc1ccc2[nH]c([S+]([O-])Cc3ncc(C)c(OC)c3C)nc2c1` (stereo not given) the value was 95%.
In turn, `COc1c(C)cnc(CCC2(C)Nc3cc(F)ccc3S2)c1C` (stereo not given) showed an IC50 in assay [2] of 33 µM. The inhibition in assay [1] worked out at 81%.
The compound `COc1c(C)cnc(CCC2(C)Nc3cc(C)ccc3S2)c1C` (stereo not given) gave an inhibition in assay [1] of 0%.
Still for that read-out and setting: next, `COc1c(C)cnc(CCCC2(C)Nc3ccccc3S2)c1C` (stereo not given): 0%.
Regarding `COc1c(C)cnc(CCC2(C)Nc3cc(C(F)(F)F)ccc3S2)c1C` (stereo not given), it took 24 µM to reach half-maximal inhibition in assay [2] (IC50). For the same compound, the inhibition in assay [1] came out at 84.4%.
For the compound `COc1c(C)cnc(CCC2(C)Sc3ccccc3N2C)c1C` (stereo not given), the inhibition in assay [1] was determined as 17%.
Compound `COc1c(C)cnc(CCC2(C)Nc3ccccc3S2)c1C` (stereo not given) had an IC50 in assay [2] of 98 µM. The inhibition in assay [1] was found to be 96.4%.
In turn, `COc1c(C)cnc(C2Nc3ccccc3S2)c1C` (stereo not given) had an inhibition in assay [1] of 0%.
The same measure, in the same setting: next, `COc1c(C)cnc(CC2Nc3ccccc3S2)c1C` (stereo not given): 58.5%.
As for `COc1c(C)cnc(CCC2(C)Nc3cc(Cl)ccc3S2)c1C` (stereo not given), in assay [2], the 50% inhibitory concentration (IC50) is greater than 100 µM. The inhibition in assay [1] came to 20%.
`CCOC(=O)[C@@H]1CSC(CCc2ncc(C)c(OC)c2C)N1` (stereo not given in full) came in with an inhibition in assay [1] of 19.8%.
